Laboratory results: paper PMC10619556, “Comprehensive Evaluation System for Post-Metabolic Activity of Potential Thyroid-Disrupting Chemicals” (Journal of Microbiology and Biotechnology, 2023)
Where a name gives a salt, the structure may show the parent alone. Read-outs that look alike come from different tables or passages of the source.

Columns and labels:
[1] = system: thyroid hormone receptor (THR); experiment: hTRE_HeLa THR transcriptional activity (nano luciferase reporter) assay with rat liver S9 mixtures; type: cell-based, human; details: hTRE_HeLa cells; for THR agonist classification (positive if >= 10% of activity of 100 nM T3): parent, inactive S9, phase I and phase I+II groups, before and after S9 reaction; for THR transcriptional activity after phase I+II reaction: phase I+II group
Experimental: The hTRE_HeLa cell line, obtained from the MFDS, was used to detect thyroid hormone receptor (THR) agonists through transcriptional activation analysis, utilizing a stably modified thyroid receptor-reactive human cervical cancer cell line along with one plasmid from a nano luciferase reporter. For cell line maintenance, minimum essential media (MEM, Gibco, USA) supplemented with 10% FBS, 1% penicillin/streptomycin (P/S), and 1 ml Hygromycin B (InvivoGen, USA) was used. The hTRE_Hela cell line was conditioned and treated in test medium containing Phenol red free of MEM (Gibco) supplemented with 10% charcoal-stripped FBS (CS-FBS), 1% P/S, and 1 mL Hygromycin B. hTRE_HeLa cells were maintained in 37°C and 5% CO2 incubator. hTRE_HeLa cells were seeded with 5 × 10^3 cells per well in the 96-well plate for 24 h and treated with EDCs and S9 mixtures for 48 h.
The S9 mixture for phase I metabolism was prepared with 0.1 mg/ml rat liver S9, 2 × 10^-3 M NADPH, 3 × 10^-2 M G-6-P, 5 × 10^-2 M MgCl2, and 3 units/ml G-6-PD. For phase I+II metabolism, 2 × 10^-2 M GSH, 5 × 10^-3 M UDPGA, and 2 × 10^-5 M PAPS were additionally included to the S9 mixture. […] The S9 mixtures were added to the aforementioned test medium to be diluted 10 times. After 24 h of seeding, hTRE_HeLa cells were treated with the S9 mixtures pre-incubated for 6 h and EDCs with different concentrations.
The vehicle control (VC) included only 0.145% of DMSO containing 9 × 10^-12 M 9-cis-Retinoic acid. The final volume for each well was 100 μl. […] After treatment, 10 μl of treated medium was transferred to a new plate, to which 40 μl of test medium and 50 μl of Nano-Glo luciferase reagent (Promega, USA) were added. After a 10 min incubation, the luciferase activity was measured using a luminescence reader (Glomax Discover, Promega). For data analysis, relative transcriptional activity (RTA) of PC was set to 100%, and RTA of VCcontrol was set to 0%. The % to PC value of EDCs was calculated to (EDCs – VCtest) / (PC – VCcontrol). The VCtest was set to the VC for each test group. If the EDC was greater than or equal to 10% of PC, the EDC was determined to be a THR agonist-positive chemical. The data were described by the mean ± standard deviation.

[2] = In vitro metabolic reaction using rat liver S9 fraction with LC-MS / GC-MS metabolic profiling; details: for Metabollic rate: rat liver S9, phase I+II reaction vs inactivated S9 control, BDE28 and 4,4'-DIDBP by GC-MS, others by LC-MS; for Metabolic rate (parent decreased by) after the reaction: rat liver S9, phase I+II biotransformation
[3] = Sprague-Dawley, rat, pH 7.4
[4] = concentration not given, RTA with 100 nM T3 (PC) = 100%

## Brc1ccc(Oc2ccc(Br)cc2Br)cc1 [BDE28, BDE No. 28]
[1]
  THR agonist classification (positive if >= 10% of activity of 100 nM T3): THR agonistic negative
[2]
  Metabollic rate: 99%

## Cc1cc(OCC(=O)O)cc(C)c1Cc1ccc(O)c(C(C)C)c1 [GC-1, sobetirome]
[1]
  THR agonist classification (positive if >= 10% of activity of 100 nM T3): THR agonistic positive
[1]; phase I group, concentration not given, RTA with 100 nM T3 (PC) = 100%
  THR transcriptional activity after phase I reaction: 166.3 ± 12.0%
[1]; [4]
  THR transcriptional activity after phase I+II reaction: 160.6 ± 8.6%
[2]
  Metabolic rate (parent decreased by) after the reaction: 15%

## C[C@]12CC[C@@H]3c4ccc(O)cc4CC[C@H]3[C@@H]1CC[C@@H]2O [E2, 17β-estradiol]
[1]
  THR agonist classification (positive if >= 10% of activity of 100 nM T3): THR agonistic negative
[2]
  Metabollic rate: 44%

## N[C@@H](Cc1cc(I)c(Oc2ccc(O)c(I)c2)c(I)c1)C(=O)O [T3, 3,3’,5-triiodo-L-thyronine]
[1]; T3 100 nM as positive control
  Induction compared to the VC value: ≥ 4.8 fold
[1]
  THR agonist classification (positive if >= 10% of activity of 100 nM T3): THR agonistic positive
[2]
  Metabolic rate (parent decreased by) after the reaction: 3%

## CC12CC1(C)C(=O)N(c1cc(Cl)cc(Cl)c1)C2=O (centres unmarked) [Procymidone, procymidone]
[1]
  THR agonist classification (positive if >= 10% of activity of 100 nM T3): THR agonistic negative
[3]
  Metabollic rate: 55%

## Cc1cc(C(C#N)c2ccc(Cl)cc2)c(Cl)cc1NC(=O)c1cc(I)cc(I)c1O (centres unmarked) [Closantel, closantel]
[1]
  THR agonist classification (positive if >= 10% of activity of 100 nM T3): THR agonistic negative
[3]
  Metabollic rate: 49%

## O=C(Nc1ccc(Oc2ccc(Cl)cc2)c(Cl)c1)c1cc(I)cc(I)c1O [Rafoxanide, rafoxanide]
[1]
  THR agonist classification (positive if >= 10% of activity of 100 nM T3): THR agonistic negative
[2]
  Metabollic rate: 51%

## Ic1ccc(-c2ccc(I)cc2)cc1 [4,4’-DIDBP, 4,4'-diiodobiphenyl]
[1]
  THR agonist classification (positive if >= 10% of activity of 100 nM T3): THR agonistic negative
[3]
  Metabollic rate: 82%

## O=C(c1ccc(O)cc1O)c1ccc(O)cc1O [BP-2, 2,2',4,4'-tetrahydroxybenzophenone]
[1]
  THR agonist classification (positive if >= 10% of activity of 100 nM T3): THR agonistic negative
[2]
  Metabollic rate: 11%

## CCCCc1oc2ccccc2c1C(=O)c1cc(I)c(OCCN(CC)CC)c(I)c1 [Amiodarone, amiodarone hydrochloride]
[1]
  THR agonist classification (positive if >= 10% of activity of 100 nM T3): THR agonistic negative

## CC(C)(c1ccc(O)cc1)c1ccc(O)cc1 [BPA, bisphenol A]
[1]
  THR agonist classification (positive if >= 10% of activity of 100 nM T3): THR agonistic negative
[3]
  Metabollic rate: 52%

## COc1c(O)cc2oc(-c3ccc(O)cc3)cc(=O)c2c1O [Hispidulin, hispidulin]
[1]
  THR agonist classification (positive if >= 10% of activity of 100 nM T3): THR agonistic negative

## N[C@@H](Cc1cc(I)c(Oc2cc(I)c(O)c(I)c2)c(I)c1)C(=O)O [T4, Levothyroxine]
[1]
  THR agonist classification (positive if >= 10% of activity of 100 nM T3): THR agonistic positive

## O=C(O)CCc1cc(I)c(Oc2ccc(O)cc2)c(I)c1 [DITPA, 3,5-diiodothyropropionic acid]
[1]
  THR agonist classification (positive if >= 10% of activity of 100 nM T3): THR agonistic positive
[1]; [4]
  THR transcriptional activity after phase I+II reaction: 30.7 ± 1.8%
[2]
  Metabolic rate (parent decreased by) after the reaction: 29%
